Reference: US11773078B2, “Furin inhibitors” (Glaxosmithkline Intellectual Property Development Limited, priority 2018, dated 2023)
Counter-ions that a name gives are not always drawn.

What was measured:
[1] = biological target: T1, Furin (108-574-Tev-Flag-His) enzyme (Homo sapiens, UniProt P09958); experiment: Furin enzyme assay; format: biochemical
T1 construct: Furin (108-574-Tev-Flag-His) enzyme was expressed and purified from CHO cells; TEV cleavage site (C); FLAG (C); His (C); made in house; host or cells: CHO cells
T1 sequence (P09958 108-574): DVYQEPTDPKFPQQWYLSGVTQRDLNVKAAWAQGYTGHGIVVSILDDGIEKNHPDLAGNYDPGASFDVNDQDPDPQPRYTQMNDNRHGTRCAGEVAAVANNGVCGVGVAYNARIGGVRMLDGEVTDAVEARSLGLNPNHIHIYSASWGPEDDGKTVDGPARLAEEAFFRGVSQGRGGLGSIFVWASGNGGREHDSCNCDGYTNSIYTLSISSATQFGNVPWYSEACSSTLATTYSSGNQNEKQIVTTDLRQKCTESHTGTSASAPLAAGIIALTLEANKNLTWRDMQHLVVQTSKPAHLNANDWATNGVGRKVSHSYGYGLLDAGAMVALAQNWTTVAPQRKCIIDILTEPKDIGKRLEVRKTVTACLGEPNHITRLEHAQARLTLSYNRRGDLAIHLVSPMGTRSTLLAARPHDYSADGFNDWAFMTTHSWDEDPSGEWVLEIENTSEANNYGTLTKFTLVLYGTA
Procedure, shortened: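 CHO-expressed, purified furin construct at 40 pM in 100 mM HEPES pH7.5, 1 mM CaCl2, 0.005% Triton X-100. Eleven-point 1:3 series, 0.00017–10 μM final, incubated 2 h at room temperature and read on Envision. pXC50 from four-parameter fit.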

[2] = biological target: T2, furin (endogenous protease) in U20S cells (Homo sapiens, UniProt P09958); experiment: Furin cell-based assay (image-based, Golgi-targeted GFP with BMP10 furin/PCSK cleavage site); conditions: 24-hour incubation, read-out: furin golgi cell pXC50 (converted);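 note: Read-out is mean GFP fluorescence of Golgi puncta per cell by high-content imaging, retained when furin inhibited, over an eleven-point 0.00017–10 µM series, four-parameter fit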
T2 construct: the endogenous protease cleaves GFP; endogenous in cells; host or cells: U2OS cells transduced with a BacMam reporter
T2 sequence (P09958 108-794): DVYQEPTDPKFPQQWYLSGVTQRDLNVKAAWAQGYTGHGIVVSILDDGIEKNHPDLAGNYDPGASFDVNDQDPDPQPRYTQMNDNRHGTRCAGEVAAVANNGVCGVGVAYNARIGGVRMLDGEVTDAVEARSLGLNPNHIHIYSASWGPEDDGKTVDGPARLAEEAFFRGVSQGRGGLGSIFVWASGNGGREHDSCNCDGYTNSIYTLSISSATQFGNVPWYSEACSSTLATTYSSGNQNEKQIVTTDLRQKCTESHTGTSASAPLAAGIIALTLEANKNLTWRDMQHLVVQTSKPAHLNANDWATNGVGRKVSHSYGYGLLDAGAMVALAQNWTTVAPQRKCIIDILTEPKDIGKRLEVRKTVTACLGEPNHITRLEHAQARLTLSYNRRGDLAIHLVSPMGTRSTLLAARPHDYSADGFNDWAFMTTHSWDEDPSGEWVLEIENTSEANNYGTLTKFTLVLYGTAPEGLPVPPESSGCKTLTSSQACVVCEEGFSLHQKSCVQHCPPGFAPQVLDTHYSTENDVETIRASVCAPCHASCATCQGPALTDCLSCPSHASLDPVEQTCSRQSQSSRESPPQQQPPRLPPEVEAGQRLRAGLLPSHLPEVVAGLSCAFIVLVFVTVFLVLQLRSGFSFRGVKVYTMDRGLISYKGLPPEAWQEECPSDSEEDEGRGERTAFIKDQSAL

Compound	furin enzyme pIC50 [1]	EC50 [2] [nM]	IC50 ([1]; read-out: furin enzyme pIC50 (converted)) [nM]
CC(=O)NCC1CCN(Cc2cc(Oc3cnc(N4CCN(CC(O)C(=O)O)CC4)nc3)nc(-c3cc(Cl)cc(Cl)c3)c2)CC1 (stereo not drawn) [Example 316, 3-(4-(5-((4-((4-(acetamidomethyl)piperidin-1-yl)methyl)-6-(3,5-dichlorophenyl)pyridin-2-yl)oxy)pyrimidin-2-yl)piperazin-1-yl)-2-hydroxypropanoic acid]	10.2	100	
CC(CCN1CCN(c2cnc(Oc3cc(CN4CCC(CCO)CC4)cc(-c4cc(Cl)cc(Cl)c4)n3)cn2)CC1)C(=O)O (stereo not drawn) [Example 341, 4-(4-(5-((6-(3,5-dichlorophenyl)-4-((4-(2-hydroxyethyl)piperidin-1-yl)methyl)pyridin-2-yl)oxy)pyrazin-2-yl)piperazin-1-yl)-2-methylbutanoic acid]	8.8	10	
CCC(=O)NCC1CCN(Cc2cc(Oc3cnc(N4CCN(CCC(C)C(=O)O)CC4)cn3)nc(-c3cc(Cl)cc(Cl)c3)c2)CC1 (stereo not drawn) [Example 392, 4-(4-(5-((6-(3,5-dichlorophenyl)-4-((4-(propionamidomethyl)piperidin-1-yl)methyl)pyridin-2-yl)oxy)pyrazin-2-yl)piperazin-1-yl)-2-methylbutanoic acid]	9	15.8	
O=C(O)CC1CCN(Cc2cc(Oc3cnc(N4CC5CC(C4)N5)nc3)nc(-c3cc(Cl)cc(Cl)c3)c2)CC1 [Example 162, 2-(1-((2-((2-(3,6-diazabicyclo[3.1.1]heptan-3-yl)pyrimidin-5-yl)oxy)-6-(3,5-dichlorophenyl)pyridin-4-yl)methyl)piperidin-4-yl)acetic acid]	8.4	79.4	
CC(=O)NCC1CCN(Cc2cc(Oc3ccc(N4CC[C@@H](N)[C@@H](F)C4)nc3)nc(-c3cc(Cl)cc(Cl)c3)c2)CC1 (relative stereo) [Example 182]	9.3	1.58	
COCCN1CCN(c2ccc(Oc3cc(CN4CCC(CC(=O)O)CC4)cc(-c4cc(Cl)cc(Cl)c4)n3)cn2)CC1 [Example 244, 2-(1-((2-(3,5-dichlorophenyl)-6-((6-(4-(2-methoxyethyl)piperazin-1-yl)pyridin-3-yl)oxy)pyridin-4-yl)methyl)piperidin-4-yl)acetic acid]	8.3	20	
CC(=O)NCC1CCN(Cc2cc(Oc3cnc(N4CCN(C)CC4)nc3)cc(-c3cc(Cl)cc(Cl)c3)c2)CC1 [Example 68, N-((1-((3′,5′-dichloro-5-((2-(4-methylpiperazin-1-yl)pyrimidin-5-yl)oxy)-[1,1′-biphenyl]-3-yl)methyl)piperidin-4-yl)methyl)acetamide]	9.6	12.6	
CNCc1cc(Oc2ccc(N3CCNCC3)nc2)cc(-c2cc(Cl)cc(Cl)c2)c1 [Example 98, 1-(3′,5′-Dichloro-5-((6-(piperazin-1-yl)pyridin-3-yl)oxy)-[1,1′-biphenyl]-3-yl)-N-methylmethanamine, 3 hydrochloride]	8.7	39.8	
CNC1CCN(c2ccc(Oc3cc(CN4CCC(CNC(C)=O)CC4)cc(-c4cc(Cl)cc(Cl)c4)n3)cn2)CC1 [Example 193, N-((1-((2-(3,5-dichlorophenyl)-6-((6-(4-(methylamino)piperidin-1-yl)pyridin-3-yl)oxy)pyridin-4-yl)methyl)piperidin-4-yl)methyl)acetamide]	9	3.16	
CNC(=O)NCC1CCN(Cc2cc(Oc3cnc(N4CCN(CCC(=O)O)CC4)c(F)c3)nc(-c3cc(Cl)cc(Cl)c3)c2)CC1 [Example 270, 3-(4-(5-((6-(3,5-dichlorophenyl)-4-((4-((3-methylureido)methyl)piperidin-1-yl)methyl)pyridin-2-yl)oxy)-3-fluoropyridin-2-yl)piperazin-1-yl)propanoic acid]	9.5	25.1	
O=C(O)CC1CCN(Cc2cc(Oc3ccc(N4CCCNCC4)nc3)nc(-c3cc(Cl)cc(Cl)c3)c2)CC1 [Example 166, 2-(1-((2-((6-(1,4-Diazepan-1-yl)pyridin-3-yl)oxy)-6-(3,5-dichlorophenyl)pyridin-4-yl)methyl)piperidin-4-yl)acetic acid]	8.5	63.1	
CC(=O)NCC1CCN(Cc2cc(Oc3ccc(N4CCC5(CCNC5)C4)nc3)nc(-c3cc(Cl)cc(Cl)c3)c2)CC1 (stereo not drawn) [Example 199, N-((1-((2-((6-(2,7-diazaspiro[4.4]nonan-2-yl)pyridin-3-yl)oxy)-6-(3,5-dichlorophenyl)pyridin-4-yl)methyl)piperidin-4-yl)methyl)acetamide]	9.2	5.01	
CC(=O)NCC1CCN(Cc2cc(Oc3cnc(N4CCN(CCS(C)(=O)=O)CC4)nc3)nc(-c3cc(Cl)cc(Cl)c3)c2)CC1 [Example 285, N-((1-((2-(3,5-dichlorophenyl)-6-((2-(4-(2-(methylsulfonyl)ethyl)piperazin-1-yl)pyrimidin-5-yl)oxy)pyridin-4-yl)methyl)piperidin-4-yl)methyl)acetamide]	8.1	63.1	
CNCc1cc(Oc2ccc(N3CCC(N)CC3)nc2)cc(-c2cc(Cl)cc(Cl)c2)c1 [Example 100, 1-(5-((3′,5′-Dichloro-5-((methylamino)methyl)-[1,1′-biphenyl]-3-yl)oxy)pyridin-2-yl)piperidin-4-amine, 3 hydrochloride]	8.8	79.4	
CN1CCN(c2ncc(Nc3cc(CN4CCC(CC(=O)O)CC4)cc(-c4cc(Cl)cc(Cl)c4)n3)cn2)CC1 [Example 332, 2-(1-((2-(3,5-Dichlorophenyl)-6-((2-(4-methylpiperazin-1-yl)pyrimidin-5-yl)amino)pyridin-4-yl)methyl)piperidin-4-yl)acetic acid, 4 hydrochloride]	8.3	50.1	
COC(=O)NCC1CCN(Cc2cc(Oc3cnc(N4CCN(CCO)CC4)nc3)nc(-c3cc(Cl)cc(Cl)c3)c2)CC1 [Example 311, methyl ((1-((2-(3,5-dichlorophenyl)-6-((2-(4-(2-hydroxyethyl)piperazin-1-yl)pyrimidin-5-yl)oxy)pyridin-4-yl)methyl)piperidin-4-yl)methyl)carbamate]	8.9	15.8	
COC(=O)NCC1CCN(Cc2cc(Oc3cnc(N4CCN(C)CC4)cn3)nc(-c3cc(Cl)cc(Cl)c3)c2)CC1 [Example 395, methyl ((1-((2-(3,5-dichlorophenyl)-6-((5-(4-methylpiperazin-1-yl)pyrazin-2-yl)oxy)pyridin-4-yl)methyl)piperidin-4-yl)methyl)carbamate]	9.2	31.6	
CC(=O)NCC1CCN(Cc2cc(Oc3cnc(N4CCN(C(C)CCC(=O)O)CC4)nc3)nc(-c3cc(Cl)cc(Cl)c3)c2)CC1 (stereo not drawn) [Example 215, 4-(4-(5-((4-((4-(acetamidomethyl)piperidin-1-yl)methyl)-6-(3,5-dichlorophenyl)pyridin-2-yl)oxy)pyrimidin-2-yl)piperazin-1-yl)pentanoic acid]		10	0.398
CN1CCN(c2ncc(Oc3cc(CN4CCC(CC(=O)O)CC4)cc(-c4cc(Cl)cc(Cl)c4)c3)cn2)CC1 [Example 117, 2-(1-((3′,5′-Dichloro-5-((2-(4-methylpiperazin-1-yl)pyrimidin-5-yl)oxy)-[1,1′-biphenyl]-3-yl)methyl)piperidin-4-yl)acetic acid]	9.2	31.6	
CNC(=O)NCC1CCN(Cc2cc(Oc3cnc(N4CCN(CCCS(N)(=O)=O)CC4)nc3)nc(-c3cc(Cl)cc(Cl)c3)c2)CC1 [Example 48, 3-((4-(5-((6-(3,5-Dichlorophenyl)-4-((4-((3-methylureidolmethyl)piperidin-1-yl)methyl)pyridin-2-yl)oxy)pyrimidin-2-yl)piperazin-1-yl)propane-1-sulfonamide. 4 hydrochloride]	9.4	2.51	
CC(=O)NCC1CCN(Cc2cc(Oc3cnc(N4CCN(CCCS(N)(=O)=O)CC4)nc3)nc(-c3cc(Cl)cc(Cl)c3)c2)CC1 [Example 253, N-((1-((2-(3,5-dichlorophenyl)-6-((2-(4-(3-sulfamoylpropyl)piperazin-1-yl)pyrimidin-5-yl)oxy)pyridin-4-yl)methyl)piperidin-4-yl)methyl)acetamide]	9.7	2.51	
O=C(O)CC1CCN(Cc2cc(Oc3cnc(N4CCN(Cc5cnn[nH]5)CC4)nc3)nc(-c3cc(Cl)cc(Cl)c3)c2)CC1 [Example 387, 2-(1-((2-((2-(4-((1H-1,2,3-Triazol-5-yl)methyl)piperazin-1-yl)pyrimidin-5-yl)oxy)-6-(3,5-dichlorophenyl)pyridin-4-yl)methyl)piperidin-4-yl)acetic acid]	8.5	25.1	
CNCc1cc(Oc2ccc(N3CC4CNCC4C3)nc2)cc(-c2cc(Cl)cc(Cl)c2)c1 (stereo not drawn) [Example 201, 1-(3′,5′-dichloro-5-((6-(hexahydropyrrolo[3,4-c]pyrrol-2(1H)-yl)pyridin-3-yl)oxy)-[1,1′-biphenyl]-3-yl)-N-methylmethanamine]	9.4	20	
COC(=O)NCC1CCN(Cc2cc(Oc3cnc(N4CCN(C[C@@H](C)O)CC4)nc3)nc(-c3cc(Cl)cc(Cl)c3)c2)CC1 [Example 312, (R)-methyl ((1-((2-(3,5-dichlorophenyl)-6-((2-(4-(2-hydroxypropyl)piperazin-1-yl)pyrimidin-5-yl)oxy)pyridin-4-yl)methyl)piperidin-4-yl)methyl)carbamate]	9.7	15.8	
